# Data: publication PMC3483018 (Journal of Medicinal Chemistry, 2012)
# Read-outs that look alike come from different tables or passages of the source.
# What was measured:
# [1] = test system: SW620 human colon cancer cell; settings: read-out: SW620 GI50; cited from earlier work
# [2] = assay type: in vitro ADME; settings: mouse liver microsomes, 10 μM
# [3] = assay type: in vitro ADME; settings: human liver microsomes, 10 μM
# [4] = biological target: hERG (Homo sapiens, UniProt Q12809); test: in vitro
# Sequence of hERG (Q12809 whole entry): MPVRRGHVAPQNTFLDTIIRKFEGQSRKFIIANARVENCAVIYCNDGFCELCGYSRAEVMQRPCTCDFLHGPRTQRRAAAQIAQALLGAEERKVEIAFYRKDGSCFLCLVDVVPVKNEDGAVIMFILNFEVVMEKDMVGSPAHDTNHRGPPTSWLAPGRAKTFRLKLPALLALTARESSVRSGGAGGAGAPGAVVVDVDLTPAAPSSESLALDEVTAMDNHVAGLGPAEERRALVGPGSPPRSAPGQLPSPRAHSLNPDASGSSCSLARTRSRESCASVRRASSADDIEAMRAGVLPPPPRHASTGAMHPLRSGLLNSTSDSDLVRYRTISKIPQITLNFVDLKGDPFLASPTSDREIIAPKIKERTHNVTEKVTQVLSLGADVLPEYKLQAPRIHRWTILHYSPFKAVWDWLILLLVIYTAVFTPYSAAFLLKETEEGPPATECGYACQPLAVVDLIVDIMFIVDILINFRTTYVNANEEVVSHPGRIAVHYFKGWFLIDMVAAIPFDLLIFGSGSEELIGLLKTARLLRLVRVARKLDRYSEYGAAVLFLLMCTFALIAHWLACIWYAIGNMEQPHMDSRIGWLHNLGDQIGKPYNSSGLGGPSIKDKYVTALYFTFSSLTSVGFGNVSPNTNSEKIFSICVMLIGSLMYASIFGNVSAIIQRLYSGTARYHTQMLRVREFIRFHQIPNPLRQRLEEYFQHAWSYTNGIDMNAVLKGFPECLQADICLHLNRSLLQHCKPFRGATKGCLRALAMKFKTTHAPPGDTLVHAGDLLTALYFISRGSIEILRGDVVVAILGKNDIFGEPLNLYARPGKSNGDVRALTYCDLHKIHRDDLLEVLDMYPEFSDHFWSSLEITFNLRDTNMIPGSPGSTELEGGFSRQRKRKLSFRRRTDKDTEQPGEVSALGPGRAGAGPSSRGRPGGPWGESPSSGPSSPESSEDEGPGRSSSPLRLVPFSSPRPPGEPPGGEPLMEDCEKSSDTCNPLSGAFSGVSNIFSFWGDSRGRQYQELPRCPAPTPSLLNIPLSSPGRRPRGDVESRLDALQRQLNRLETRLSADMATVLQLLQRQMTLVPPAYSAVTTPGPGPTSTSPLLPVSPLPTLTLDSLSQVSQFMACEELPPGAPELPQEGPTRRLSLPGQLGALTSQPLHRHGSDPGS
# [5] = test system: Stat5 phosphorylation at Y694; test: PK/PD study, tumor biomarker; assay type: in vivo, mouse; settings: 50 and 100 mg/kg po b.i.d. 4 days, 2 h after the final dose
# [6] = test system: MV4–11 human FLT3-ITD positive AML tumor xenografts; settings: for days on which individual mice were culled (tumor volume increased by over 500%): control culled day 18
# [7] = Caco-2 assay; assay type: in vitro ADME
# [8] = test system: histone H-3 phosphorylation at S10; test: PK/PD study, tumor biomarker; assay type: in vivo, mouse; settings: 50 and 100 mg/kg po b.i.d. 4 days, 2 h after the final dose
# [9] = In vivo rat PK; settings: female, Sprague-Dawley, plasma, iv, 5 mg/kg
# [10] = pKa measurement; assay type: physicochemical
compound,measurement,setting,value
Cc1cc(CN2CCN(c3c(Br)cnc4nc(-c5ccc(N6CCN(C)CC6)cc5)[nH]c34)CC2)no1 [Compound 6],GI50,[1],300 nM
"Cc1cc(CN2CCN(c3c(Cl)cnc4nc(-c5cnn(C)c5)[nH]c34)CC2)no1 [Compound 21i, 3-((4-(6-Chloro-2-(1-methyl-1H-pyrazol-4-yl)-3H-imidazo[4,5-b]pyridin-7-yl)piperazin-1-yl)methyl)-5-methylisoxazole]",MLM: Percentage of parent compound metabolized after a 30 min incubation,[2],20%
same,HLM: Percentage of parent compound metabolized after a 30 min incubation,[3],10%
same,inhibition at 10 µM,[4],67%
"Cc1nn(C)cc1-c1nc2c(N3CCN(Cc4ccc(Cl)cc4)CC3)c(Cl)cnc2[nH]1 [Compound 27e, 6-Chloro-7-(4-(4-chlorobenzyl)piperazin-1-yl)-2-(1,3-dimethyl-1H-pyrazol-4-yl)-3H-imidazo[4,5-b]pyridine]",inhibition of Stat5 phosphorylation in tumor,[5],clear inhibition
same,days on which individual mice were culled (tumor volume increased by over 500%),[6]; 50 mg/kg,days 28 and 31
same,tumors when therapy discontinued,"[6]; 100 mg/kg po b.i.d., after 11 days",undetectable
same,days on which individual mice were culled (tumor volume increased by over 500%),[6]; 100 mg/kg,days 46 and 56
same,toxicity as defined by body weight loss and general condition,[6]; 50 and 100 mg/kg po,no observed toxicity
same,Caco-2 efflux,[7],no efflux
same,inhibition of histone H-3 phosphorylation in tumor,[8],clear inhibition
same,Vd,[9],0.369 L
"Cc1cc(CN2CCN(c3c(Br)cnc4nc(-c5cncn5C)[nH]c34)CC2)no1 [Compound 21a, 3-((4-(6-Bromo-2-(1-methyl-1H-imidazol-5-yl)-3H-imidazo[4,5-b]pyridin-7-yl)piperazin-1-yl)methyl)-5-methylisoxazole]",inhibition at 10 µM,[4],94%
"COc1ccc(-c2nc3c(N4CCN(Cc5cc(C)on5)CC4)c(Br)cnc3[nH]2)cc1 [6-bromo-2-(4-methoxyphenyl)-7-[4-(5-methyl-isoxazol-3-ylmethyl)-piperazin-1-yl]-3H-imidazo[4,5-b]pyridine]",pKa,[10]; acidic pKa of the imidazopyridine N3 proton,9.51
same,pKa,[10]; pKa of the piperazine nitrogen bearing the 5-methylisoxazol-3-yl substituent,5.39
